Results published in ChEMBL document CHEMBL1136254, “Synthesis and SAR of 8-arylquinolines as potent corticotropin-releasing factor1 (CRF1) receptor antagonists” (Bioorg Med Chem Lett, 2003).
In brackets after ≈: the same amount, converted by molar mass.

Legend:
[1] = target: T1, Corticotropin-releasing factor receptor 1 (Homo sapiens, UniProt P34998); assay: Binding affinity towards cloned human Corticotropin releasing factor receptor 1 expressed in CHO cells using [125I]o-CRF as the radioligand; format: cell-based
T1 sequence (P34998 whole entry): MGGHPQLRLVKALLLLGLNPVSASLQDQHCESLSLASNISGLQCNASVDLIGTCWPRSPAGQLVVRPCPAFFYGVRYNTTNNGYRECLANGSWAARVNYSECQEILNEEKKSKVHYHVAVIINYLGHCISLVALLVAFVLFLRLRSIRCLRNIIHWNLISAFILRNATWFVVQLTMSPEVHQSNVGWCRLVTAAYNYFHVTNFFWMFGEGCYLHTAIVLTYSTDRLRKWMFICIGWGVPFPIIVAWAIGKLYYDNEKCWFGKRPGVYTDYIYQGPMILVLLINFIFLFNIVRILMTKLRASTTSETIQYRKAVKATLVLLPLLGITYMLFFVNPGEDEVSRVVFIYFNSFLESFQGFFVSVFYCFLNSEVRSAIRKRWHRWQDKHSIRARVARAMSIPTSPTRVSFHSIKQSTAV

[2] = target: T1, Corticotropin-releasing factor receptor 1; assay: Inhibition of Corticotropin releasing factor receptor 1-stimulated cAMP production; format: functional
[3] = Solubility at pH 4; format: physicochemical; conditions: buffer
[4] = pKa value was determined; format: physicochemical

Ki [1] | IC50 [2] | solubility [3] | pKa [4] | SMILES
5.7 nM | 51 nM | – | – | CCCCN(CC)c1cc(C)nc2c(-c3ccc(Cl)cc3Cl)cccc12
8.9 nM | – | – | – | CCCN(CCC)c1cc(C)nc2c(-c3ccc(Cl)cc3)cccc12
2.5 nM | – | – | – | CCCN(CC1CC1)c1cc(C)nc2c(-c3ccc(Cl)cc3Cl)c(C)ccc12
2.2 nM | – | – | – | CCCN(CC1CC1)c1cc(C)nc2c(-c3c(C)cc(C)cc3C)cccc12
16 nM | – | – | – | CSc1cc(C)nc2c(-c3ccc(Cl)cc3Cl)cccc12
6.5 nM | – | – | – | COCCN(CCOC)c1cc(C)nc2c(-c3c(C)cc(C)cc3C)cccc12
0.5 nM | 16 nM | – | – | CCCN(CC1CC1)c1cc(C)nc2c(-c3ccc(Cl)cc3Cl)cccc12
52 nM | – | – | – | CCCN(CCC)c1cc(C)nc2c(-c3ccc(OC)cc3)cccc12
– | – | 10000 µg/mL (≈ 26.3 mM) | 7.1 | CCCN(CCC)c1cc(C)nc2c(-c3cnc(N(C)C)cc3C)c(C)nn12
5.7 nM | 14 nM | – | – | COCCN(CCOC)c1cc(C)nc2c(-c3ccc(Cl)cc3Cl)cccc12
